Reference: patent EP4729514A1, “BICYCLIC DERIVATIVE PARP INHIBITOR AND USE THEREOF” (Haisco Pharmaceutical Group Co., Ltd., priority 2023, dated 2024)
Where two headings read alike, the source gives them in different places.

Tests used:
PARP-1 = target: T1, PARP-1 (Homo sapiens, UniProt P09874); test: PARP1 enzyme activity assay (FP method, fluorescent probe); type: biochemical
T1 construct: purchased BPS 80501
Experimental: The inhibition of compounds on PARP1/2 enzyme activity was tested using the FP method. The substrate tracer fluorescent probe (from ICE BIOSCIENCE INC.) in the reaction was prepared in a reaction buffer (50 mM Tris (pH 8.0), 10 mM MgCl2, 150 mM NaCl, 0.001% Triox-100). PARP1/2 (BPS, Cat #80501/80502) was added to the reaction buffer, and gently mixed. The final concentrations of PARP1/2 and the fluorescent probe in the reaction mixture were 5/10 nM and 2.5 nM, respectively. Positive reference Olaparib was serially diluted 3-fold, from an initial concentration of 1 µM, to generate 10 concentration points. 0.1 µL of the compound in 100% DMSO was delivered to a 384-well plate (Corning, 4514) by the acoustic liquid conveyor (Echo 655), and the plate was centrifuged at 1000 rpm for 1 minute; 5 µL of PARP enzyme solution was transferred into the 384-well reaction plate, and the plate was centrifuged at 1000 rpm for 1 minute, and incubated at 25°C for 10 min; 5 µL of substrate solution was transferred into the 384-well reaction plate, and the plate was centrifuged at 1000 rpm for 1 minute, and incubated at 25°C for 60 minutes; finally, the mP signal value of FP (ex/em: 485 nm/520 nm) was read using the fluorescence polarisation module of the BMG PHERAstar FSX. Subsequently, the IC50 value was determined by fitting the data to a four-parameter nonlinear regression curve using GraphPad Prism 8 software. The inhibition rate was calculated according to formula 1, where RLUsample represents the readout of the compound well, RLUmax represents the readout of the solvent control well, and RLUmin represents the readout of the control well without the PARP1/2 enzyme. The IC50 value was determined by fitting the data to a four-parameter curve (log(inhibitor) vs. response -- Variable slope) using GraphPad Prism software. Inhibition% = (1−(RLUsample−RLUmin)/(RLUmax−RLUmin)) × 100% [formula] Table 1 PARP-1 enzyme activity

DLD-1 = DLD-1 cell activity assay (CellTiter-Glo, 7 days); type: cell-based; details: Homo sapiens, 168 h, 7 days incubation; for inhibition at 10 µM: read-out: Max inh.% 10 µM; for IC50: table does not say whether DLD-1 or DLD-1 BRCA2 KO
Experimental: DLD-1 (150 cells/well/100 µL) (ATCC, CCL-221) and DLD-1 BRCA2 KO (1500 cells/well/100 µL) (from ICE BIOSCIENCE INC.) were inoculated into a 96-well plate (Greiner, 655090) at appropriate cell densities and incubated overnight in a cell incubator at 37°C. The test compound was diluted in the corresponding cell culture medium, and the mixture was added to the well plate and incubated for 7 days. On the fourth day, the medium was replaced with a fresh medium containing the same concentrations of the compounds. The CellTiter-Glo reagent (CTG, Vazyme, DD1101-03) and the culture plate were taken out and returned to room temperature, and then 60 µL of CTG reagent was added to the cells. The plate was then shaken for 2 minutes to ensure complete cell lysis and placed at room temperature for 30 minutes. Luminescence signal values were read using a microplate reader (PHERAstar FSX). The wells containing only culture medium were used as negative controls, and the DMSO-containing wells were used as positive controls. The inhibitory activity percentage of the compounds was normalised using the readings from the negative and positive controls. Calculation formula of inhibition rate: [formula] Table 2 DLD-1 cell activity

[1] = Pharmacokinetic test in rats; type: in vivo, SD rats; details: for Kp at 24 h: brain, 24 h after administration, cell spans the i.v. and i.g. lines, read-out: Brain/Plasma Ratio (24 h); for Kp at 24 h / bioavailability: rat; for pharmacokinetic characteristics in rats: conclusion in words; for AUC(0-t) at 24 h / clearance / Vd: rat plasma; for Vd: read-out: Vdss; for bioavailability: plasma
Experimental: 4.1. Experimental animals: Male SD rats (about 220 g, 6-8 weeks old, 6 rats/compound) purchased from CHENGDU DOSSY EXPERIMENTAL ANIMALS CO., LTD.
4.2 Experimental design: on the day of the experiment, 12 SD rats were randomly grouped according to their body weights. The animals were fasted with water available for 12-14 h one day before the administration, and were fed 4 h after the administration. Table 4. Administration information
Before and after administration, 0.15 ml of blood was taken from the orbit under isoflurane anaesthesia and placed in an EDTAK2 centrifuge tube. The tube was centrifuged at 5000 rpm at 4°C for 10 min, and plasma was collected. The blood collection time points for the intravenous administration group and intragastric administration group were: 0, 5 min, 15 min, 30 min, 1 h, 2 h, 4 h, 6 h, 8 h and 24 h. The brain tissues were collected 24 hours after the administration, rinsed with cold physiological saline to remove the residual blood on the surface, drained out and then homogenised. Before analysis and detection, all samples were stored at -80°C. The samples were quantitatively analysed by LC-MS/MS. Table 5. Pharmacokinetic parameters of test compounds in plasma of rats

A549 PARP1 KO = test: PARP selectivity experiment (pADPr immunofluorescence after H2O2 stimulation), A549 PARP1 KO cells; type: cell-based; details: Homo sapiens, 0.75 h, H2O2 20 mM for 45 minutes
Experimental: (§1) A549WT, A549 PARP1 KO and A549 PARP2 KO cell lines were inoculated into a 384-well plate at 2500/40 µL/well, and incubated overnight at 37°C with 5% CO2. On the next day, 40 nL of serially diluted compounds were added, and the cells were incubated at 37°C with 5% CO2 for 1 hour. The cells were stimulated by adding 5 µL of H2O2. A549 WT and A549 PARP2 KO were stimulated with a final concentration of 200 µM for 5 minutes, and A549 PARP1 KO was stimulated with a final concentration of 20 mM for 45 minutes. After the stimulation, the supernatant was discarded, and the cells were fixed with 40 µL of pre-cooled methanol in a refrigerator at 4°C for 20 minutes. The cells were washed twice with PBS, and blocked with 20 µL of blocking buffer for 1 hour. A primary antibody mixture (prepared by diluting the pADPr antibody (10H: sc-56198) 1 : 500 in blocking buffer) was added, and the plate was incubated overnight at 4°C. The cells were washed three times with PBST. A secondary antibody mixture (prepared by diluting the goat anti-mouse IgG (H+L) highly cross-adsorbed secondary antibody (Alexa Fluor™ 488) 1 : 500 in blocking buffer) was added, and the plate was incubated at room temperature for 1 hour. The cells were washed three times with PBST, and 20 µL of DAPI solution (1 : 5000 dilution) was added. The plate was incubated at room temperature for 10 minutes before scanning. […]

A549 PARP2 KO = test: PARP selectivity experiment (pADPr immunofluorescence after H2O2 stimulation), A549 PARP2 KO cells; type: cell-based
Experimental: as §1

[2] = PARP-1 enzyme activity, FP method, read-out: IC50

T1 sequence (P09874 whole entry): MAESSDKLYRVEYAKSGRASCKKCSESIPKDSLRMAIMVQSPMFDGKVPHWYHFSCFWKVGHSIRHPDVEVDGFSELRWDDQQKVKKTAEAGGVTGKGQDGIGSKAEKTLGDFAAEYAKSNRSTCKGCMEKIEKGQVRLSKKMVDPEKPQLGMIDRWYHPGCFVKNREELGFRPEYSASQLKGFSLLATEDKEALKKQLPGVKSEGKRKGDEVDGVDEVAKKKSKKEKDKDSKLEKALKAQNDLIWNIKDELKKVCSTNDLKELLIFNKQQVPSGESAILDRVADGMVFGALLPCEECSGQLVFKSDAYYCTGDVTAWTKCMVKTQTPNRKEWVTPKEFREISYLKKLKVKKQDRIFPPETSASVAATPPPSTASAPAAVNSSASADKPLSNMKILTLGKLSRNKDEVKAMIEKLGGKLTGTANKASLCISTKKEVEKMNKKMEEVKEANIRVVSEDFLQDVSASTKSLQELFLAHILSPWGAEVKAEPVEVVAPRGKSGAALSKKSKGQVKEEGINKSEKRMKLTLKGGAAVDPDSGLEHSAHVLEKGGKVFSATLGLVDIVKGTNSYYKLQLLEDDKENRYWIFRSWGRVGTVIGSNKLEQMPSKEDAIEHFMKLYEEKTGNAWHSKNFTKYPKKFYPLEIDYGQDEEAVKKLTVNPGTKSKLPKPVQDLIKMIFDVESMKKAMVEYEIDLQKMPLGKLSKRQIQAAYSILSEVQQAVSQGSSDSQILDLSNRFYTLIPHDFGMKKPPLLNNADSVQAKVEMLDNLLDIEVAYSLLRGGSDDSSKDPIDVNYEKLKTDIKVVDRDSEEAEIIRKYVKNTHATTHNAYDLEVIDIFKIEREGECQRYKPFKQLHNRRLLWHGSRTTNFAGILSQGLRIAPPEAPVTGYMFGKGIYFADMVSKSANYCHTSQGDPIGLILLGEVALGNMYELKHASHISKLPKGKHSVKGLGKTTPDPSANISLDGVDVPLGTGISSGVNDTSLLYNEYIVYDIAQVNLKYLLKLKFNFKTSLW

IC50 (PARP-1; [2]) | Compound | IC50 (PARP-1) | inhibition at 10 µM (DLD-1) | IC50 (DLD-1) | further results
– | C=C1CC(NC(=O)c2ccc(N3CCN(Cc4ccc5nc(C)c(=O)[nH]c5c4F)CC3)c(F)n2)C1 [Compound 9] | 3.25 nM | 81.8% | 7.99 nM | –
7.94 nM | C=C1CC(NC(=O)c2ccc(O[C@H]3CN(Cc4ccc5nc(C)c(=O)[nH]c5c4F)[C@@H]3C)c(F)n2)C1 [Compound 18] | – | – | – | –
– | C=C1CC(NC(=O)c2ccc(O[C@H]3CN(Cc4ccc5nc(CC)c(=O)[nH]c5c4F)[C@@H]3C)c(F)n2)C1 [Compound 8] | 5.42 nM | 86.7% | 16.8 nM | Kp at 24 h ([1]; iv): 0.242; pharmacokinetic characteristics in rats [1]: good pharmacokinetic characteristics; AUC(0-t) at 24 h ([1]; iv, i.v. (2.5 mg/kg)): 5720 ± 298 ng·h/mL; clearance ([1]; iv, i.v. (2.5 mg/kg)): 4.36 ± 0.74 mL/min/kg; Vd ([1]; iv, i.v. (2.5 mg/kg)): 0.855 ± 0.16 L/kg; bioavailability ([1]; po, i.g. (10 mg/kg)): 81.9 ± 22%; AUC(0-t) at 24 h ([1]; po, i.g. (10 mg/kg)): 31800 ± 8480 ng·h/mL
– | Cn1cc(NC(=O)c2ccc(N3CCN(Cc4ccc5nc(C(F)F)c(=O)[nH]c5c4F)CC3)c(F)n2)c(F)n1 [Compound 2] | 10.8 nM | 93.1% | 4.67 nM | IC50 (A549 PARP1 KO): > 5000 nM; IC50 (A549 PARP2 KO; Homo sapiens, 5 min, A549 PARP2 KO cells, H2O2 200 µM for 5 minutes): 0.63 nM; selectivity for PARP1 (A549 PARP2 KO; conclusion in words, from A549 PARP2 KO versus A549 PARP1 KO): good selectivity for PARP1; Kp at 24 h ([1]; iv): 1.03; pharmacokinetic characteristics in rats [1]: good pharmacokinetic characteristics; AUC(0-t) at 24 h ([1]; iv, i.v. (2.5 mg/kg)): 18700 ± 972 ng·h/mL; clearance ([1]; iv, i.v. (2.5 mg/kg)): 2.22 ± 0.11 mL/min/kg; Vd ([1]; iv, i.v. (2.5 mg/kg)): 0.348 ± 0.027 L/kg; bioavailability ([1]; po, i.g. (10 mg/kg)): 66.8 ± 15%; AUC(0-t) at 24 h ([1]; po, i.g. (10 mg/kg)): 50000 ± 11500 ng·h/mL
– | CCc1nc2ccc(CN3CCN(c4ccc(C(=O)Nc5cn(C)nc5F)nc4F)CC3)c(F)c2[nH]c1=O [Compound 1] | 2.74 nM | 94% | 3.64 nM | –
12.5 nM | C=C1CC(NC(=O)c2ccc(N3CCN(Cc4ccc5nc(C(F)F)c(=O)[nH]c5c4F)CC3)c(F)n2)C1 [Compound 7] | – | – | – | –
17.1 nM | Cn1ncc(C(=O)Nc2ccc(N3CCN(Cc4ccc5nc(C(F)F)c(=O)[nH]c5c4F)CC3)c(F)n2)c1F [Compound 5] | – | – | – | –
6.39 nM | CCc1nc2ccc(CN3CCN(c4ccc(C(=O)NC5CC(=C(F)F)C5)nc4F)CC3)c(F)c2[nH]c1=O (stereo not drawn) [Compound 13] | – | – | – | –
– | C=C1CC(NC(=O)c2ccc(N3CCN(Cc4ccc5nc(CC)c(=O)[nH]c5c4F)CC3)c(F)n2)C1 [Compound 10] | 4.55 nM | 87.6% | 6.96 nM | –
– | CCc1nc2ccc(CN3CCN(c4ccc(C(=O)Nc5cnn(C)c5F)nc4F)CC3)c(F)c2[nH]c1=O [Compound 4] | 3.38 nM | 91.7% | 3.1 nM | –
3.14 nM | Cc1nc2ccc(CN3CCN(c4ccc(C(=O)NC5CC(=C(F)F)C5)nc4F)CC3)c(F)c2[nH]c1=O (stereo not drawn) [Compound 12] | – | – | – | –
5.63 nM | CCc1nc2ccc(CN3C[C@H](Oc4ccc(C(=O)NC5CC(=C(F)F)C5)nc4F)[C@H]3C)c(F)c2[nH]c1=O (stereo partly drawn) [Compound 11] | – | – | – | –
10.5 nM | CCc1nc2ccc(CN3CCN(c4ccc(NC(=O)c5cn(C)nc5F)nc4F)CC3)c(F)c2[nH]c1=O [Compound 6] | – | – | – | –
– | Cn1ncc(NC(=O)c2ccc(N3CCN(Cc4ccc5nc(C(F)F)c(=O)[nH]c5c4F)CC3)c(F)n2)c1F [Compound 3] | 10.5 nM | 91.6% | 4.67 nM | –
